Laboratory results published in US20260138973A1, “SUBSTITUTED PYRIDINES FOR USE IN TREATING OR PREVENTING INFLAMMATORY DISEASES OR DISEASES ASSOCIATED WITH AN UNDESIRABLE IMMUNE RESPONSE” (SITRYX THERAPEUTICS LIMITED, priority 2022, published 2026).
Counter-ions that a name gives are not always drawn. Like-named read-outs stand apart in the source and are kept apart here.

Experiments:
NRF2 = test: DiscoverX PathHunter NRF2 translocation assay +/-GSH in U2OS cells; format: cell-based; details: for EC50: U2OS PathHunter cells, 6 hours, read-out: NRF2 activation EC50; for NRF2 activation Emax: normalised to DMF high control
Method: Potency and efficacy of compounds of formula (I) against the target of interest to activate NRF2 (nuclear factor erythroid 2-related factor 2) were determined using the PathHunter NRF2 translocation kit (DiscoverX). The NRF2 translocation assay was run using an engineered recombinant cell line, utilising enzyme fragment complementation to determine activation of the Keap1-NRF2 protein complex and subsequent translocation of NRF2 into the nucleus. Enzyme activity was quantified using a chemiluminescent substrate consumed following the formation of a functional enzyme upon PK-tagged NRF2 translocation into the nucleus.
The assay was run under both +/−GSH (glutathione) conditions to determine the sensitivity of the compounds' NRF2-activating abilities to attenuation by GSH.
Additionally, a defined concentration of DMF was used as the ‘High’ control to normalise test compound activation responses to.
U2OS PathHunter express cells were thawed from frozen prior to plating. Following plating, U2OS cells were incubated for 24 hrs (37° C./5% CO2) in commercial kit provided cell medium.
Following 24 hrs of U2OS incubation, cells were directly treated with an appropriate final concentration of compound, for −GSH conditions or, for +GSH conditions, an intermediate plate containing 6× working concentrations of compound stocks was prepared in a 6 mM working concentration of GSH solution (solubilised in sterile PBS). Following a 30 minute compound-GSH pre-incubation (37° C./5% CO2) for +GSH treatment, plated U2OS cells were incubated with an appropriate final concentration of compound and GSH.
Following compound (+/−GSH) treatment, the U2OS plates were incubated for a further 6 hours (37° C./5% CO2) before detection reagent from the PathHunter NRF2 commercial kit was prepared and added to test plates according to the manufacturer's instructions. Subsequently, the luminescence signal detection was measured in a microplate reader (PHERAstar®, BMG Labtech).
Percentage activation was calculated by normalising the sample data to the high and low controls used within each plate (+/−DMF). Percentage activation/response was then plotted against compound concentration and the 50% activation concentration (EC50) was determined from the plotted concentration-response curve.

[1] = Hepatocyte stability assay, human; format: in vitro ADME; details: cryopreserved hepatocytes; Human hepatocytes, 10 μM compound, 0.5×10^6 cells/mL; read-out: T½
Text: (§1) Defrosted cryo-preserved hepatocytes (viability >70%) were used to determine the metabolic stability of a compound via calculation of intrinsic clearance (Clint; a measure of the removal of a compound from the liver in the absence of blood flow and cell binding). Clearance data are particularly important for in vitro work as they can be used in combination with in vivo data to predict the half-life and oral bioavailability of a drug.
(§2) The metabolic stability in hepatocytes assay involves a time-dependent reaction using both positive and negative controls. The cells were pre-incubated at 37° C. then spiked with test compound (and positive control); samples were taken at pre-determined time intervals and were analysed to monitor the change in concentration of the initial drug compound over 60 minutes. A buffer incubation reaction (with no hepatocytes present) acted as a negative control and two cocktail solutions, containing compounds with known high and low clearance values (verapamil/7-hydroxycoumarin and propranolol/diltiazem), acted as positive controls. • 1. The assay was run with a cell concentration of 0.5×10^6 cells/mL in Leibovitz buffer. • 2. All compounds and controls were run in duplicate. • 3. Compound concentration was 10 μM. • 4. All compounds and controls were incubated with both cells and buffer to show turnover was due to hepatic metabolism. • 5. All wells on the incubation plate had 326.7 μL of either cells or buffer added. • 6. Prior to assay, cell and buffer-only incubation plates were preincubated for 10 mins at 37° C. • 7. The assay was initiated by adding compounds, 3.3 μL of 1 mM in 10% DMSO-90% Buffer; final DMSO concentration was 0.1%. • 8. Samples were taken at regular timepoints (0, 5, 10, 20, 40, 60 min) until 60 mins. • 9. Sample volume was 40 μL and was added to 160 μL of crash solvent (acetonitrile with internal standard) and stored on ice. • 10. At the end of the assay, the crash plates were centrifuged at 3500 rpm for 20 mins at 4° C. • 11. 80 μL of clear supernatant was removed and mixed with 80 μL of deionised water before being analysed by LC-MS/MS.
(§3) Raw LC-MS/MS data was exported to, and analysed in, Microsoft Excel for determination of intrinsic clearance. The percentage remaining of a compound was monitored using the peak area of the initial concentration as 100%. Intrinsic clearance and half-life values were calculated using a graph of the natural log of percentage remaining versus the time of reaction in minutes. Half-life (min) and intrinsic clearance (Clint in μL min^−1 10^−6 cells) values were calculated using the gradient of the graph (the elimination rate constant, k) and Equations 1 and 2.

hepatocytes [2] = test: Hepatocyte stability assay, human; format: in vitro ADME
Text: as §1, §2, §3

IL-1β = test: THP-1 AlphaLISA IL-1β cytokine inhibition assay (differentiated THP-1 cells, LPS then nigericin); format: cell-based; details: for IC50: THP-1 cell, PMA-differentiated, LPS 24 hr + nigericin 1 hour; for effectiveness in the IL-1β assay: THP-1 cells, result in words
Method: Measuring Inhibitory Effects on IL-1β Cytokine Output from THP-1s
The cytokine inhibition profiles of compounds of formula (I) were determined in a differentiated THP-1 cell assay. All assays were performed in RPMI-1640 growth medium (Gibco), supplemented with 10% fetal bovine serum (FBS; Gibco), 1% penicillin-streptomycin and 1% sodium pyruvate unless specified otherwise. The IL-1β cytokine inhibition assay was run in a background of differentiated THP-1 cells as described below. All reagents described were from Sigma-Aldrich unless specified otherwise. Compounds were prepared as 10 mM DMSO stocks.
THP-1 cells were expanded as a suspension up to 80% confluence in appropriate growth medium. Cells were harvested, suspended, and treated with an appropriate concentration of phorbol 12-myristate 13-acetate (PMA) over a 72 hr period (37° C./5% CO2).
Following 72 hrs of THP-1 cell incubation, cellular medium was removed and replaced with fresh growth media containing 1% of FBS. Working concentrations of compounds were prepared separately in 10% FBS treated growth medium and pre-incubated with the cells for 30 minutes (37° C./5% CO2). Following the 30 minute compound pre-incubation, THP-1s were treated with an appropriate concentration of LPS and the cells were subsequently incubated for a 24 hr period (37° C./5% CO2). An appropriate final concentration of Nigericin was then dispensed into the THP-1 plates and incubated for 1 hour (37° C./5% CO2) before THP-1 supernatants were harvested and collected in separate polypropylene 96-well holding plates.
Reagents from an IL-1β and IL-6 commercial kit (Perkin Elmer) were prepared and run according to the manufacturer's instructions. Subsequently, fluorescence signal detection in a microplate reader was measured (EnVision® Multilabel Reader, Perkin Elmer).
Percentage inhibition was calculated per cytokine by normalising the sample data to the high and low controls used within each plate (+/−LPS respectively). Percentage inhibition was then plotted against compound concentration and the 50% inhibitory concentration (IC50) was determined from the resultant concentration-response curve.

hepatocytes [3] = test: Hepatocyte stability assay, mouse; format: in vitro ADME; details: 10 μM compound, 0.5×10^6 cells/mL
Text: as §1, §2, §3

IL-6 = test: THP-1 AlphaLISA IL-6 cytokine inhibition assay (differentiated THP-1 cells, LPS then nigericin); format: cell-based; details: THP-1 cell, PMA-differentiated, LPS 24 hr + nigericin 1 hour
Method: The cytokine inhibition profiles of compounds of formula (I) were determined in a differentiated THP-1 cell assay. All assays were performed in RPMI-1640 growth medium (Gibco), supplemented with 10% fetal bovine serum (FBS; Gibco), 1% penicillin-streptomycin and 1% sodium pyruvate unless specified otherwise. The IL-1β cytokine inhibition assay was run in a background of differentiated THP-1 cells as described below. All reagents described were from Sigma-Aldrich unless specified otherwise. Compounds were prepared as 10 mM DMSO stocks. THP-1 cells were expanded as a suspension up to 80% confluence in appropriate growth medium. Cells were harvested, suspended, and treated with an appropriate concentration of phorbol 12-myristate 13-acetate (PMA) over a 72 hr period (37° C./5% CO2). Following 72 hrs of THP-1 cell incubation, cellular medium was removed and replaced with fresh growth media containing 1% of FBS. Working concentrations of compounds were prepared separately in 10% FBS treated growth medium and pre-incubated with the cells for 30 minutes (37° C./5% CO2). […] Subsequently, fluorescence signal detection in a microplate reader was measured (EnVision® Multilabel Reader, Perkin Elmer). Percentage inhibition was calculated per cytokine by normalising the sample data to the high and low controls used within each plate (+/−LPS respectively).

[4] = Hepatocyte stability assay, mouse; format: in vitro ADME; details: cryopreserved hepatocytes, 10 μM compound, 0.5×10^6 cells/mL, read-out: T½
Text: as §1, §2, §3

[5] = Human hepatocytes, 10 μM compound, 0.5×10^6 cells/mL

| SMILES | EC50 (NRF2; +GSH) [µM] | NRF2 activation Emax (NRF2; +GSH) [%] | EC50 (NRF2; −GSH) [µM] | NRF2 activation Emax (NRF2; −GSH) [%] | half-life at 10 μM [1] [min] | Clint (hepatocytes [2]; [5]) [μL min^−1 10^−6 cells] | IC50 (IL-1β; Homo sapiens) [µM] | Clint (hepatocytes [3]) [μL min^−1 10^−6 cells] | T½ (hepatocytes [2]; [5]) [min] | IC50 (IL-1β) [µM] | IC50 (IL-6) [µM] | T½ (hepatocytes [3]) [min] | effectiveness in the IL-1β assay (IL-1β) | stability (intrinsic clearance and half-life) compared to 4-octyl itaconate and 2-(2-chlorobenzyl)acrylic acid (hepatocytes [2]; mouse and/or human cells, result in words) | half-life at 10 μM [4] [min] | IC50 (IL-6; Homo sapiens) [µM] |
| --- | --- | --- | --- | --- | --- | --- | --- | --- | --- | --- | --- | --- | --- | --- | --- | --- |
| C=C(Cc1ccccc1Cl)C(=O)O [2-(2-chlorobenzyl)acrylic acid, reference compound] | > 100 | 9 | > 100 | 2 | 59 | 21 | > 100 | 95 |  |  |  |  |  |  |  |  |
| C=C(CC(=O)OCCCCCCCC)C(=O)O [4-octyl itaconate, reference compound] | 28.9 | 148 | 22.1 | 165 |  | 401 |  | 351 | 4 | 37.8 | 19.1 | 4 |  |  |  |  |
| C=C(Cc1nc(-c2ccc(OCCCC)nc2)no1)C(=O)O [Example 1, 2-((3-(6-butoxypyridin-3-yl)-1,2,4-oxadiazol-5-yl)methyl)acrylic acid] | 19.5 | 130 | 20.8 | 192.5 |  |  | > 100 |  |  |  |  |  | not effective |  |  |  |
| C=C(Cc1nc(-c2ccc(OCCCC)cn2)no1)C(=O)O [Example 2, 2-((3-(5-butoxypyridin-2-yl)-1,2,4-oxadiazol-5-yl)methyl)acrylic acid] |  |  |  |  |  |  | > 100 |  |  |  |  |  | not effective |  |  |  |
| C=C(Cc1nc(-c2ncc(OCCCC)cc2Cl)no1)C(=O)O [Example 3, 2-((3-(5-butoxy-3-chloropyridin-2-yl)-1,2,4-oxadiazol-5-yl)methyl)acrylic acid] | 11.4 | 78.58 | 22.7 | 172.5 | 181 | 7.18 | 2.09 | 133 |  |  |  |  |  | more stable | 9.27 |  |
| C=C(Cc1nc(-c2ncc(Oc3ccc(F)cc3)cc2Cl)no1)C(=O)O [Example 4, 2-((3-(3-chloro-5-(4-fluorophenoxy)pyridin-2-yl)-1,2,4-oxadiazol-5-yl)methyl)acrylic acid] | 15.5 | 145 | 7.07 | 208.56 |  |  | 2.12 |  |  |  |  |  |  |  |  |  |
| COC(=O)/C=C/C(=O)O [monomethyl fumarate, reference compound] |  |  |  |  |  |  | > 100 |  |  |  |  |  |  |  |  | > 100 |
